Where a name gives a salt, the structure may show the parent alone.
System: cutaneous trunci muscle reflex
Test: guinea pig pin-prick assay, local anesthetic efficacy of subcutaneously implanted sponges
Type: in vivo
Conditions: subcutaneous implant (sponge about 0.5 g) or 0.5 mL solution injected, n=6
Excerpt: To evaluate in vivo the local anesthetic efficacy of the drug-loaded implanted thermosensitive hydroxypropyl chitin sponges prepared in Example 1, guinea pig pin-prick assay was employed in this invention. Guinea pigs (around 300 g) were induced and maintained with isoflurane. Then the left backs of guinea pigs were shaved before treatment. One longitudinal skin incision with 1.5 cm in length was made by a scalpel at 2 cm left of ridge midline on the back of the guinea pig. Subsequently, one cuboid sponge about 0.5 g (1 cm×1 cm×0.5 cm) was put right in the middle of the incision below the skin. The incision was finally stitched up. 36 animals were randomly divided into six experimental groups with each of 6: group 1: BPV-loaded 0.8B %-HPCH (3.6 wt %) sponge, group 2: 0.8B %-collagen/HPCH (0.6/3.0 wt %) sponge, group 3: 1.2B %-HPCH (3.6 wt %) sponge, group 4: 2.4B %-HPCH (3.6 wt %) sponge, 0.8%-BPV group 5 (0.8 wt % BPV solution) and sham-operated group 6. As for sham-operated group, the incision was made and stitched up without placing a sponge. For BPV solution group, a volume of 0.5 mL 0.8% BPV solution was injected subcutaneously near the skin incision using 30-gage hypodermic needle. […] The nociceptive blockade score (N %) was calculated as following equation: N %=n/8×100%. […]

CCCCN1CCCCC1C(=O)Nc1c(C)cccc1C (stereo not shown) [0.8%-BPV, bupivacaine hydrochloride]
effective duration of blockade (time with nociceptive blockade score≥50%): 1 h
